Source: patent US20250129027A1 (APOGEE PHARMACEUTICALS, INC., priority 2023, published 2025)

Tests used:
human recombinant FAAH = human recombinant FAAH (Homo sapiens (Human), UniProt O00519); experiment: In vitro inhibition of FAAH activity (fluorescent inhibitor screening kit, AMC arachidonoyl amide); assay type: biochemical; conditions: human recombinant FAAH; read-out: Inhibition on FAAH activity (IC50)
Source text: The inhibitory effect of compounds of Formula (I-IV) on the activity of human recombinant FAAH was studied using a commercial inhibitor screening kit (Cayman Chemicals, Godlewski et al., 2010 [19]). In brief, FAAH hydrolyzes AMC arachidonoyl amide resulting in the release of the fluorescent product, while the inhibitor will inhibit the FAAH activity and thus reduce the fluorescent signal. The resulting fluorophore can be analyzed using an excitation wavelength of 340-360 nm and an emission wavelength of 450-465 nm by a plate reader (Synergy H1, Biotek). Inhibition is calculated as a percentage of the treated sample over the non-treated control based on the signal values, and where possible, a range of concentrations of compounds was tested to find the IC50 values (i.e. the concentration of compound that inhibited 50% FAAH activity).

human recombinant MAGL = human recombinant MAGL (Homo sapiens (Human), UniProt Q99685); experiment: In vitro inhibition of MAGL activity (inhibitor screening kit, 4-nitrophenylacetate); assay type: biochemical; conditions: human recombinant MAGL
Procedure: The inhibitory effect of the compounds on activity of human recombinant MAGL was also studied using a commercial inhibitor screening kit (Cayman Chemicals). In brief, MAGL hydrolyzes 4-nitrophenylacetate resulting in a yellow product, 4-nitrophenol with an absorbance at 405-412 nm, while the inhibitor will inhibit the MAGL activity and thus reduce the yellow signal. The absorbance of the yellow product can be analyzed using the plate reader. Inhibition is calculated as a percentage of the treated sample over the non-treated MAGL control based on the signal values.

Sequence of human recombinant FAAH (O00519 whole entry): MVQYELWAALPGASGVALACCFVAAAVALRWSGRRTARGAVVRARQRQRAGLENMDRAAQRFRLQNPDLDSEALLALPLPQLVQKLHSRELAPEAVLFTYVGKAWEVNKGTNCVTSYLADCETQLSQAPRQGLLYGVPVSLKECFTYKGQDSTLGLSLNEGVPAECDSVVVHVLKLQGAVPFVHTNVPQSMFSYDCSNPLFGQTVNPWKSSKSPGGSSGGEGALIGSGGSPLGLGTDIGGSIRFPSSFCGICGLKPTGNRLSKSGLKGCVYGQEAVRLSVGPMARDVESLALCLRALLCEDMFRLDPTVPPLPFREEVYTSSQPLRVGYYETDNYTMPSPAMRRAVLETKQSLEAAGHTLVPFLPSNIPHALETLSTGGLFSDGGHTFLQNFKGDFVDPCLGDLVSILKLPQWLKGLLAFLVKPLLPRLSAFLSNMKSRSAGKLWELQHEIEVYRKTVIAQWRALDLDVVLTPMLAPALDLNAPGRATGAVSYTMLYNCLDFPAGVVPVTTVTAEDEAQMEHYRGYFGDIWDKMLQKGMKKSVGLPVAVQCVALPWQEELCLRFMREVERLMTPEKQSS
Sequence of human recombinant MAGL (Q99685 whole entry): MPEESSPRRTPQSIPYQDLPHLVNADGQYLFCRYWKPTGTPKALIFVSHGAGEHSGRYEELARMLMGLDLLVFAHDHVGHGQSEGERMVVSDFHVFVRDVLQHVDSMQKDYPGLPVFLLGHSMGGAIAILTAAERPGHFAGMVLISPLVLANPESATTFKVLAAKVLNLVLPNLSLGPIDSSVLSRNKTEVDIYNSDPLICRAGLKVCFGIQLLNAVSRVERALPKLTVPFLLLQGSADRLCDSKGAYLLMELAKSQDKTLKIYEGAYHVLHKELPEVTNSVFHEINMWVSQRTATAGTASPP

| SMILES | IC50 (human recombinant FAAH) | IC50 (human recombinant MAGL) |
| --- | --- | --- |
| O=Cc1cncc(-c2cccc(OC(=O)NC3CCCC3)c2)c1 [Example 18, 3-(5-formylpyridin-3-yl)phenyl cyclopentylcarbamate] | 10 to 100 nM | > 10000 nM |
| O=Cc1cncc(-c2cccc(OC(=O)NC3CCCCCC3)c2)c1 [Example 20, 3-(5-formylpyridin-3-yl)phenyl cyclohepylcarbamate] | 100 to 1000 nM | > 10000 nM |
| O=Cc1cncc(-c2cccc(OC(=O)NC34CC5CC(CC(C5)C3)C4)c2)c1 [Example 21, 3-(5-formylpyridin-3-yl)phenyl ((1s,3s)-adamantan-1-yl)carbamate] | > 1000 nM | > 10000 nM |
| CCCCCCCNC(=O)Oc1cccc(-c2cncc(C(=O)NO)c2)c1 [Example 22, 3-(5-(hydroxycarbamoyl)pyridin-3-yl)phenyl heptylcarbamate] | 10 to 1000 nM | > 1000 nM |
| CCCCCCCCNC(=O)Oc1cccc(-c2cncc(C(=O)NO)c2)c1 [Example 23, 3-(5-(hydroxycarbamoyl)pyridin-3-yl)phenyl octylcarbamate] | > 1000 nM | > 10000 nM |
| CCCCCCCCNC(=O)Oc1cccc(-c2cncc(C(=O)NN)c2)c1 [Example 25, 3-(5-(hydrazinecarbonyl)pyridin-3-yl)phenyl octylcarbamate] | > 1000 nM | > 10000 nM |
| N#Cc1cncc(-c2cccc(OC(=O)NC3CCCCC3)c2)c1 [Example 28, 3-(5-cyanopyridin-3-yl)phenyl cyclohexylcarbamate] | 100 to 1000 nM | > 10000 nM |
| N#Cc1cncc(-c2cccc(OC(=O)NC3CCCCCC3)c2)c1 [Example 29, 3-(5-cyanopyridin-3-yl)phenyl cycloheptylcarbamate] | ~100 nM | > 10000 nM |
| O=C(NCC1CCCCC1)Oc1cccc(-c2cncc(C(F)(F)F)c2)c1 [Example 31, 3-(5-(trifluoromethyl)pyridin-3-yl)phenyl (cyclohexylmethyl)carbamate] | 10 to 100 nM | > 1000 nM |
| O=C(NC1CCCC1)Oc1cccc(-c2cncc(C(F)(F)F)c2)c1 [Example 32, 3-(5-(trifluoromethyl)pyridin-3-yl)phenyl cyclopentylcarbamate] | 10 to 100 nM | > 10000 nM |
| O=C(NC1CCCCC1)Oc1cccc(-c2cncc(C(F)(F)F)c2)c1 [Example 33, 3-(5-(trifluoromethyl)pyridin-3-yl)phenyl cyclohexylcarbamate] | 100 to 1000 nM | > 10000 nM |
| O=C(NC1CCCCCC1)Oc1cccc(-c2cncc(C(F)(F)F)c2)c1 [Example 34, 3-(5-(trifluoromethyl)pyridin-3-yl)phenyl cycloheptylcarbamate] | 100 to 1000 nM | > 10000 nM |
| CCCCCCCCNC(=O)Oc1cccc(-c2cncc(-c3ccc[nH]3)c2)c1 [Example 35, 3-(5-(1H-pyrrol-2-yl)pyridin-3-yl)phenyl octylcarbamate] | 10 to 100 nM | > 10000 nM |
| O=C(NCC1CCCCC1)Oc1cccc(-c2cncc(-c3ccc[nH]3)c2)c1 [Example 36, 3-(5-(1H-pyrrol-2-yl)pyridin-3-yl)phenyl (cyclohexylmethyl)carbamate] | 100 to 1000 nM | ~10000 nM |
| O=C(NCc1ccccc1)Oc1cccc(-c2cncc(-c3ccc[nH]3)c2)c1 [Example 37, 3-(5-(1H-pyrrol-2-yl)pyridin-3-yl)phenyl benzylcarbamate] | ~1000 nM | > 10000 nM |
| O=C(NC1CCCC1)Oc1cccc(-c2cncc(-c3ccc[nH]3)c2)c1 [Example 38, 3-(5-(1H-pyrrol-2-yl)pyridin-3-yl)phenyl cyclopentylcarbamate] | 100 to 1000 nM | > 10000 nM |
| O=C(NC1CCCCC1)Oc1cccc(-c2cncc(-c3ccc[nH]3)c2)c1 [Example 39, 3-(5-(1H-pyrrol-2-yl)pyridin-3-yl)phenyl cyclohexylcarbamate] | 100 to 1000 nM | > 10000 nM |
| O=C(NC1CCCCCC1)Oc1cccc(-c2cncc(-c3ccc[nH]3)c2)c1 [Example 40, 3-(5-(1H-pyrrol-2-yl)pyridin-3-yl)phenyl cycloheptylcarbamate] | 10 to 100 nM | ~10000 nM |
